In patent publication US20160318897A1, “AZOLE COMPOUNDS CARRYING AN IMINE-DERIVED SUBSTITUENT” (BASF SE, priority 2013, published 2016):

Tests used:
Format in all cases: in vivo
Ceratitis capitata = assay: Mediterranean fruitfly (Ceratitis capitata) microtiter plate insect diet test; conditions: 120 h, egg and larval mortality after 5 days, read-out: mortality in comparison with untreated controls
Description: B.4 Mediterranean Fruitfly (Ceratitis capitata)
For evaluating control of Mediterranean fruitfly (Ceratitis capitata) the test unit consisted of microtiter plates containing an insect diet and 50-80 C. capitata eggs.
(§1) The compounds were formulated using a solution containing 75% v/v water and 25% v/v DMSO. Different concentrations of formulated compounds were sprayed onto the insect diet at 5 μl, using a custom built micro atomizer, at two replications.
(§2) After application, microtiter plates were incubated at about 28±1° C. and about 80±5% relative humidity for 5 days. Egg and larval mortality was then visually assessed.

Aphis craccivora = assay: Cowpea aphid (Aphis craccivora) spray test on potted cowpea plants; conditions: after 72 hours, read-out: mortality in comparison with untreated controls
Description: B.3 Cowpea Aphid (Aphis Craccivora)
The active compound is dissolved at the desired concentration in a mixture of 1:1 (vol:vol) distilled water:acetone. Surfactant (Kinetic HV) is added at a rate of 0.01% (vol/vol). The test solution is prepared at the day of use.
Potted cowpea plants were colonized with approximately 50-100 aphids of various stages by manually transferring a leaf tissue cut from infested plant 24 hours before application. Plants were sprayed after the pest population has been recorded. Treated plants are maintained on light carts at about 28° C. Percent mortality was assessed after 72 hours.

Spodoptera eridania = assay: Southern armyworm (Spodoptera eridania), 2nd instar larvae, foliar spray on lima bean; conditions: 96 h, 4 days after treatment, read-out: mortality in comparison with untreated controls
Description: B.9 Southern Armyworm (Spodoptera eridania), 2nd Instar Larvae
The active compounds were formulated by a Tecan liquid handler in 100% cyclohexanone as a 10,000 ppm solution supplied in tubes. The 10,000 ppm solution was serially diluted in 100% cyclohexanone to make interim solutions. These served as stock solutions for which final dilutions were made by the Tecan in 50% acetone:50% water (v/v) into 5 or 10 ml glass vials. A nonionic surfactant (Kinetic®) was included in the solution at a volume of 0.01% (v/v). The vials were then inserted into an automated electrostatic sprayer equipped with an atomizing nozzle for application to plants/insects.
Lima bean plants (variety Sieva) were grown 2 plants to a pot and selected for treatment at the 1st true leaf stage. Test solutions were sprayed onto the foliage by an automated electrostatic plant sprayer equipped with an atomizing spray nozzle. The plants were dried in the sprayer fume hood and then removed from the sprayer. Each pot was placed into perforated plastic bags with a zip closure. About 10 to 11 armyworm larvae were placed into the bag and the bags zipped closed. […] Mortality and reduced feeding were assessed 4 days after treatment, compared to untreated control plants.

Plutella xylostella = assay: Diamond back moth (Plutella xylostella) cabbage leaf dip test; conditions: foliar, 3rd instar larvae, 72 hours after treatment, read-out: mortality in comparison with untreated controls
Description: B.8 Diamond Back Moth (Plutella xylostella)
The active compound is dissolved at the desired concentration in a mixture of 1:1 (vol:vol) distilled water:aceteone. Surfactant (Kinetic HV) is added at a rate of 0.01% (vol/vol). The test solution is prepared at the day of use.
Leaves of cabbage were dipped in test solution and air-dried. Treated leaves were placed in petri dishes lined with moist filter paper and inoculated with ten 3rd instar larvae. Mortality was recorded 72 hours after treatment. Feeding damages were also recorded using a scale of 0-100%.

Dichromothrips corbetti = assay: Orchid thrips (Dichromothrips corbetti) floral-immersion test; conditions: adult thrips, 72 hours after treatment, read-out: mortality in comparison with untreated controls
Description: B.2 Orchid Thrips (Dichromothrips Corbetti)
Dichromothrips corbetti adults used for bioassay were obtained from a colony maintained continuously under laboratory conditions. For testing purposes, the test compound is diluted in a 1:1 mixture of acetone:water (vol:vol), plus Kinetic HV at a rate of 0.01% v/v.
Thrips potency of each compound was evaluated by using a floral-immersion technique. All petals of individual, intact orchid flowers were dipped into treatment solution and allowed to dry in Petri dishes. Treated petals were placed into individual resealable plastic along with about 20 adult thrips. All test arenas were held under continuous light and a temperature of about 28° C. for duration of the assay. After 3 days, the numbers of live thrips were counted on each petal. The percent mortality was recorded 72 hours after treatment.

Heliothis virescens = assay: Tobacco budworm (Heliothis virescens) microtiter plate insect diet test; conditions: 120 h, egg and larval mortality after 5 days, read-out: mortality in comparison with untreated controls
Description: B.5 Tobacco Budworm (Heliothis virescens)
For evaluating control of tobacco budworm (Heliothis virescens) the test unit consisted of 96-well-microtiter plates containing an insect diet and 15-25 H. virescens eggs.
The compounds were formulated using a solution containing 75% v/v water and 25% v/v DMSO. Different concentrations of formulated compounds were sprayed onto the insect diet at 10 μl, using a custom built micro atomizer, at two replications.
as §2

Nephotettix virescens = assay: Rice green leafhopper (Nephotettix virescens) spray test on rice seedlings; conditions: adults, after 72 hours, read-out: mortality in comparison with untreated controls
Description: B.7 Rice Green Leafhopper (Nephotettix virescens)
Rice seedlings were cleaned and washed 24 hours before spraying. The active compounds were formulated in 1:1 acetone:water (vol:vol), and 0.01% vol/vol surfactant (Kinetic HV) was added. Potted rice seedlings were sprayed with 5-6 ml test solution, air dried, covered with Mylar cages cages and inoculated with 10 adults. Treated rice plants were kept at about 28-29° C. and relative humidity of about 50-60%. Percent mortality was recorded after 72 hours.

Anthonomus grandis = assay: Boll weevil (Anthonomus grandis) microtiter plate insect diet test; conditions: 120 h, egg and larval mortality after 5 days, read-out: mortality in comparison with untreated controls
Description: B.1 Boll Weevil (Anthonomus grandis)
For evaluating control of boll weevil (Anthonomus grandis) the test unit consisted of 96-well-microtiter plates containing an insect diet and 5-10 A. grandis eggs.
as §1
After application, microtiter plates were incubated at about 25±1° C. and about 75±5% relative humidity for 5 days. Egg and larval mortality was then visually assessed.

Myzus persicae = assay: Green peach aphid (Myzus persicae) systemic test, artificial diet under membrane; conditions: 72 h, adult aphids, after 3 days, read-out: mortality in comparison with untreated controls
Excerpt: B.6 Green Peach Aphid (Myzus persicae)
For evaluating control of green peach aphid (Myzus persicae) through systemic means the test unit consisted of 96-well-microtiter plates containing liquid artificial diet under an artificial membrane.
The compounds were formulated using a solution containing 75% v/v water and 25% v/v DMSO. Different concentrations of formulated compounds were pipetted into the aphid diet, using a custom built pipetter, at two replications.
After application, 5-8 adult aphids were placed on the artificial membrane inside the microtiter plate wells. The aphids were then allowed to suck on the treated aphid diet and incubated at about 23±1° C. and about 50±5% relative humidity for 3 days. Aphid mortality and fecundity was then visually assessed.

N#CC1CCN(Cc2cn(-c3ccc(Cl)c(Cl)c3)nc2C=NOCC(F)(F)F)CC1 (mixture of isomers) [IA-2, 1-[[1-(3,4-dichlorophenyl)-3-[(E/Z)-2,2,2-trifluoroethoxyiminomethyl]pyrazol-4-yl]methyl]piperidine-4-carbonitrile]
> 75%: mortality at 2500 ppm (Ceratitis capitata) | mortality at 500 ppm (Aphis craccivora) | mortality at 300 ppm (Spodoptera eridania) | mortality at 500 ppm (Plutella xylostella) | mortality at 500 ppm (Dichromothrips corbetti) | mortality at 2500 ppm (Heliothis virescens) | mortality at 500 ppm (Nephotettix virescens) | mortality at 2500 ppm (Anthonomus grandis)

CON=Cc1nn(-c2ccc(Cl)c(Cl)c2)cc1CN1CCC(C#N)CC1 (mixture of isomers) [IA-1, 1-[[1-(3,4-dichlorophenyl)-3-[(E/Z)-methoxyiminomethyl]pyrazol-4-yl]methyl]piperidine-4-carbonitrile]
> 75%: mortality at 2500 ppm (Myzus persicae) | mortality at 2500 ppm (Ceratitis capitata) | mortality at 500 ppm (Aphis craccivora) | mortality at 300 ppm (Spodoptera eridania) | mortality at 500 ppm (Plutella xylostella) | mortality at 500 ppm (Dichromothrips corbetti) | mortality at 2500 ppm (Heliothis virescens) | mortality at 500 ppm (Nephotettix virescens) | mortality at 2500 ppm (Anthonomus grandis)
